Where “and” joins values, the source holds several entries; their conditions need not be identical. Equal values may be shown once. Inconclusive results and toxic doses are left out. The calls were made as follows: active = survival T/C of 150% or more; inactive = T/C below 125% in these data.
Test system: P388 leukemia ip, CD2F1 mice, survival T/C
Experiment: NCI In Vivo Anticancer Drug Screen. Data for tumor model P388 Leukemia (intraperitoneal) in CD2F1 (CDF1) mice
Conditions: endpoint: median survival time, higher = longer survival
Procedure, shortened: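 Mice carrying the transplanted tumor received test compound or vehicle. Survival was recorded in each group, and the value is the treated-group measurement divided by that of the vehicle-treated control group.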

[1] = dose: 100.0 mg/kg/injection, schedule: Q04DX002 (ip), vehicle: saline with Tween-80
[2] = dose: 200.0 mg/kg/injection, schedule: Q04DX002 (ip), vehicle: saline with Tween-80
[3] = dose: 400.0 mg/kg/injection, schedule: Q04DX002 (ip), vehicle: saline with Tween-80
[4] = dose: 50.0 mg/kg/injection, schedule: Q01DX009 (ip), vehicle: saline with Tween-80
[5] = dose: 100.0 mg/kg/injection, schedule: Q01DX009 (ip), vehicle: saline with Tween-80
[6] = dose: 200.0 mg/kg/injection, schedule: Q01DX009 (ip), vehicle: saline with Tween-80
[7] = dose: 60.0 mg/kg/injection, schedule: Q01DX005 (ip), vehicle: saline with Tween-80
[8] = dose: 120.0 mg/kg/injection, schedule: Q01DX005 (ip), vehicle: saline with Tween-80
[9] = dose: 12.5 mg/kg/injection, schedule: Q01DX009 (ip), vehicle: saline with Tween-80
[10] = dose: 25.0 mg/kg/injection, schedule: Q01DX009 (ip), vehicle: saline with Tween-80
[11] = dose: 25.0 mg/kg/injection, schedule: Q01DX005 (ip), vehicle: saline with Tween-80
[12] = dose: 50.0 mg/kg/injection, schedule: Q01DX005 (ip), vehicle: saline with Tween-80
[13] = dose: 100.0 mg/kg/injection, schedule: Q01DX005 (ip), vehicle: saline with Tween-80
[14] = dose: 6.25 mg/kg/injection, schedule: Q01DX005 (ip), vehicle: saline with Tween-80
[15] = dose: 200.0 mg/kg/injection, schedule: Q01DX005 (ip), vehicle: saline with Tween-80

Measured: T/C

CN(C)C(=S)c1cccc(-c2ccccn2)n1
inactive: dose: 50.0 mg/kg/injection, schedule: Q04DX003 (ip), vehicle: Klucel (hydroxypropylcellulose) (HPC) 95 % of control | dose: 100.0 mg/kg/injection, schedule: Q04DX003 (ip), vehicle: Klucel (hydroxypropylcellulose) (HPC) 96 % of control | dose: 200.0 mg/kg/injection, schedule: Q04DX003 (ip), vehicle: Klucel (hydroxypropylcellulose) (HPC) 91 % of control

Cc1cc(-c2ccccc2)c(C)c(-c2ccccc2)c1-c1ccccc1
inactive: [1] 99 % of control | [2] 101 % of control | [3] 96 % of control

C/C(=N\O)C1CC2C=C(C#N)C1N(Cc1ccccc1)C2 (configuration not stated)
inactive: dose: 8.75 mg/kg/injection, schedule: Q01DX005 (ip), vehicle: Klucel (hydroxypropylcellulose) (HPC) 96 % of control | dose: 17.5 mg/kg/injection, schedule: Q01DX005 (ip), vehicle: Klucel (hydroxypropylcellulose) (HPC) 93 % of control | dose: 35.0 mg/kg/injection, schedule: Q01DX005 (ip), vehicle: Klucel (hydroxypropylcellulose) (HPC) 123 % of control

COC(=O)c1c(-c2ccccc2)c(-c2ccccc2)n(-c2ccccc2)c1/N=C/N(C)C
inactive: [4] 97 % of control | [5] 90 % of control | [6] 90 % of control

CC(C)c1ccc2nc3ccc(C(=O)NCCN4CCN(c5ccccc5)CC4)cn3c(=O)c2c1
inactive: [7] 97 % of control | [8] 89 % of control | dose: 240.0 mg/kg/injection, schedule: Q01DX005 (ip), vehicle: saline with Tween-80 92 % of control

CNC(=O)Nc1ccn(C(=O)NC)c(=O)n1
inactive: dose: 100.0 mg/kg/injection, schedule: Q04DX002 (ip), vehicle: Klucel (hydroxypropylcellulose) (HPC) 114 % of control | dose: 200.0 mg/kg/injection, schedule: Q04DX002 (ip), vehicle: Klucel (hydroxypropylcellulose) (HPC) 120 % of control

CCN(CC)C(C)C(=O)c1ccc2cc(Br)c3ccccc3c2c1 (configuration not stated)
inactive: dose: 50.0 mg/kg/injection, schedule: Q01DX005 (ip), vehicle: saline 109 % of control | dose: 100.0 mg/kg/injection, schedule: Q01DX005 (ip), vehicle: saline 113 % of control

O=[N+]([O-])c1ccc2nc(CC(O)(C(F)(F)F)C(F)(F)F)ccc2c1
inactive: [5] 115 % of control | [6] 90 % of control | dose: 400.0 mg/kg/injection, schedule: Q01DX009 (ip), vehicle: saline with Tween-80 95 % of control

Cn1c2cc3c(c(O)c2c(=O)c2cccnc21)C=CC(C)(C)O3
inactive: dose: 50.0 mg/kg/injection, schedule: Q01DX005 (ip), vehicle: Klucel (hydroxypropylcellulose) (HPC) 104 % of control | dose: 100.0 mg/kg/injection, schedule: Q01DX005 (ip), vehicle: Klucel (hydroxypropylcellulose) (HPC) 91 % of control | dose: 200.0 mg/kg/injection, schedule: Q01DX005 (ip), vehicle: Klucel (hydroxypropylcellulose) (HPC) 93 % of control

COc1cc(OC2OC(CO)C(O)C(O)C2O)ccc1/C=C\C(=O)c1ccc(OC2OC(CO)C(O)C(O)C2O)cc1 (configuration not stated)
inactive: [1] 91 % of control | [2] 96 % of control | [3] 96 % of control

CC(=O)c1cc(I)c(O)c2ncccc12
inactive: dose: 6.25 mg/kg/injection, schedule: Q01DX009 (ip), vehicle: saline with Tween-80 97 % of control | [9] 94 % of control | [10] 98 % of control

C=CCN(C=O)CC(OCC)OCC
inactive: [11] 100 % of control | [12] 97 % of control | [13] 99 % of control

O=C(Oc1cc([N+](=O)[O-])cc([N+](=O)[O-])c1)C(c1ccccc1)c1ccccc1
inactive: [9] 106 % of control | [10] 112 % of control | [4] 118 % of control

CSc1nc(Cl)c2cn[nH]c2n1
inactive: dose: 100.0 mg/kg/injection, schedule: Q04DX002 (ip), vehicle: water 116 % of control | dose: 200.0 mg/kg/injection, schedule: Q04DX002 (ip), vehicle: water 109 % of control

ON=C1CCCCCCC1
inactive: dose: 50.0 mg/kg/injection, schedule: Q01DX009 (ip), vehicle: suspension in saline 97 % of control | dose: 100.0 mg/kg/injection, schedule: Q01DX009 (ip), vehicle: suspension in saline 104 % of control | dose: 200.0 mg/kg/injection, schedule: Q01DX009 (ip), vehicle: suspension in saline 103 % of control | dose: 400.0 mg/kg/injection, schedule: Q01DX009 (ip), vehicle: suspension in saline 98 % of control

CC(=O)Nc1ccc(/C=C\c2ccnc3ccccc23)cc1
inactive: dose: 25.0 mg/kg/injection, schedule: Q04DX002 (ip), vehicle: saline with Tween-80 109 % of control

S=C=[N][Sn]([N]=C=S)([c]1ccccc1)[c]1ccccc1.c1ccc2nc(-c3ccc4ccccc4n3)ccc2c1
inactive: dose: 1.87 mg/kg/injection, schedule: Q01DX005 (ip), vehicle: Klucel (hydroxypropylcellulose) (HPC) 97 % of control | dose: 3.75 mg/kg/injection, schedule: Q01DX005 (ip), vehicle: Klucel (hydroxypropylcellulose) (HPC) 109 % of control and 110 % of control

C=C1CC2(CC3CC(C2C)C3(C)C)OC1=O (configuration not stated)
inactive: dose: 25.0 mg/kg/injection, schedule: Q04DX002 (ip), vehicle: saline 102 % of control | dose: 50.0 mg/kg/injection, schedule: Q04DX002 (ip), vehicle: saline 100 % of control | dose: 100.0 mg/kg/injection, schedule: Q04DX002 (ip), vehicle: saline 100 % of control and 90 % of control | dose: 400.0 mg/kg/injection, schedule: Q04DX002 (ip), vehicle: saline 100 % of control

Cc1ccc2ncccc2c1
inactive: dose: 50.0 mg/kg/injection, schedule: Q04DX003 (ip), vehicle: saline with Tween-80 102 % of control | dose: 100.0 mg/kg/injection, schedule: Q04DX003 (ip), vehicle: saline with Tween-80 101 % of control | dose: 200.0 mg/kg/injection, schedule: Q04DX003 (ip), vehicle: saline with Tween-80 98 % of control

COc1ccc(CCN2C(=O)C(=O)N(c3ccc([N+](=O)[O-])cc3)C2=O)cc1OC
inactive: dose: 50.0 mg/kg/injection, schedule: Q01DX009 (ip), vehicle: saline 91 % of control | dose: 100.0 mg/kg/injection, schedule: Q01DX009 (ip), vehicle: saline 94 % of control | dose: 200.0 mg/kg/injection, schedule: Q01DX009 (ip), vehicle: saline 94 % of control

O=C(CCl)N1c2ccc3ccccc3c2Sc2ccc3ccccc3c21
inactive: [14] 96 % of control | dose: 12.5 mg/kg/injection, schedule: Q01DX005 (ip), vehicle: saline with Tween-80 101 % of control | [11] 95 % of control | [12] 98 % of control | [13] 97 % of control | [15] 105 % of control

CC1(c2ccccc2)CCC(O)CC1CC(=O)O (configuration not stated)
inactive: [12] 98 % of control | [13] 100 % of control | [15] 101 % of control

CN(C)CCCC1(O)c2ccccc2Sc2cc(Cl)ccc21 (configuration not stated)
inactive: [7] 100 % of control | [8] 96 % of control

COC(=O)C(CSCc1ccccc1)NC(=O)CCNC(=O)OCc1ccccc1 (configuration not stated)
inactive: dose: 25.0 mg/kg/injection, schedule: Q01DX009 (ip), vehicle: other 103 % of control | dose: 50.0 mg/kg/injection, schedule: Q01DX009 (ip), vehicle: other 103 % of control | dose: 100.0 mg/kg/injection, schedule: Q01DX009 (ip), vehicle: other 96 % of control | dose: 200.0 mg/kg/injection, schedule: Q01DX009 (ip), vehicle: other 90 % of control | dose: 400.0 mg/kg/injection, schedule: Q01DX009 (ip), vehicle: other 97 % of control

COc1cc2c3cc1Oc1c(OC)c(OC)cc4c1C(Cc1ccc(O)c(c1)-c1cc(ccc1OC)CC3N(C)CC2)N(C)CC4 (configuration not stated)
inactive: dose: 0.78 mg/kg/injection, schedule: Q01DX009 (ip), vehicle: Klucel (hydroxypropylcellulose) (HPC) 106 % of control | dose: 1.56 mg/kg/injection, schedule: Q01DX009 (ip), vehicle: Klucel (hydroxypropylcellulose) (HPC) 87 % of control | dose: 3.13 mg/kg/injection, schedule: Q01DX009 (ip), vehicle: Klucel (hydroxypropylcellulose) (HPC) 104 % of control | dose: 6.25 mg/kg/injection, schedule: Q01DX009 (ip), vehicle: Klucel (hydroxypropylcellulose) (HPC) 104 % of control

C1=C(c2ccccc2)OC(c2ccccc2)=C[P+]1(c1ccccc1)c1ccccc1
inactive: dose: 1.56 mg/kg/injection, schedule: Q01DX005 (ip), vehicle: saline with Tween-80 105 % of control | dose: 3.12 mg/kg/injection, schedule: Q01DX005 (ip), vehicle: saline with Tween-80 120 % of control | [14] 97 % of control

N#Cc1c2c(c(O)[nH]c1=O)C(=O)c1ccccc1-2
inactive: [9] 115 % of control | [10] 104 % of control | [4] 93 % of control

— PubChem BioAssay AID330 (DTP/NCI, 2004)
